Molecular target: T1, yeast's α-glucosidase
T1 construct: gene MAL12; yeast enzyme
Test: colorimetric α-glucosidase inhibition assay
Format: biochemical, Saccharomyces cerevisiae
Conditions: standard drug; substrate and buffer only in supplement
From the text: colorimetric α-glucosidase inhibition assay on yeast's α-glucosidase

## C[C@H]1O[C@H](O[C@H]2[C@H](O)[C@@H](O)[C@@H](O[C@H]3[C@H](O)[C@@H](O)C(O)O[C@@H]3CO)O[C@@H]2CO)[C@H](O)[C@@H](O)[C@@H]1N[C@H]1C=C(CO)[C@@H](O)[C@H](O)[C@H]1O (stereo partly shown) [Acarbose]
  Enzyme Inhibition IC50: 160.15 ± 27.52 µg/mL
